{"source": "patent US11672802B2", "about": "“Induction of immune tolerance by using methotrexate” (Genzyme Corporation, priority 2011, dated 2023)", "key": {"anti-rhGAA IgG": {"tested_on": "anti-rhGAA IgG", "assay": "Anti-rhGAA IgG ELISA titers in mice treated with rhGAA", "type": "in vivo", "protocol": "Recombinant human alglucosidase alfa (rhGAA, marketed by Genzyme Corp. as Myozyme®) was used as a formulated drug product. Mice were treated weekly with 20 mg/kg of rhGAA by bolus tail vein injection unless stated differently. All mice were treated prophylactically with 5 to 30 mg/kg diphenhydramine (Baxter Healthcare Corporation, Deerfield, Ill.) intraperitoneally prior to rhGAA administration. Control animals were treated intravenously with either sterile 0.9% saline or rhGAA-formulation buffer. Methotrexate treatment\nMice were bled 4-6 days following rhGAA treatment and specific IgG was measured by ELISA. […] Endpoint titers were defined as the reciprocal of the sample dilution resulting in an absorbance value of 0.2 using Softmax software (Molecular Devices, Sunnyvale, Calif.).\nC57Bl/6 mice were treated with one 20 mg/kg intravenous dose of rhGAA (Genzyme Corporation), 3 consecutive intraperitoneal doses of 5 mg/kg methotrexate (APP Pharmaceuticals, LLC), and either 1D11 or 13C4 at 5 mg/kg (Genzyme Corporation) for 3 doses every other day. Methotrexate, 1D11, and 13C4 treatment commenced with rhGAA injections. Spleens were collected 7 days after treatment initiation and were processed as described above for B cells, culture and flow analysis. Additionally, rhGAA titer data was obtained by treating animals as described above, with rhGAA dosed weekly over 12 weeks, methotrexate dosed for either 1 or 3 cycles, and 1D11 or 13C4 dosed 3 times a week every other day for 12 weeks. Serum samples were collected every 2 weeks for ELISA analysis."}, "[1]": {"tested_on": "circulating and splenic T cells and B cells", "assay": "Flow cytometry of alemtuzumab-mediated lymphocyte depletion in blood and spleen", "type": "in vivo, huCD52 Tg mice", "protocol": "For splenocyte and lymph node cell preparations single-cell suspensions were generated from harvested mouse spleens or inguinal and mesenteric lymph nodes by homogenization between frosted glass slides into PBS containing 2% FCS. For splenocyte preparations, red blood cells were lysed by 1-2 minute incubation with a red blood cell lysis solution (BD Biosciences, San Diego, Calif.). Blood was isolated by retro-orbital bleeding and cell preparations were performed by lysing red blood cells with red blood cell lysing solution (BD Biosciences) for 20-30 minutes. For all tissue preparations, live cells were enumerated using the ViCell automated counter (Beckman Coulter, Fullerton, Calif.). Following isolation, all cell preparations were washed with PBS/2% FCS prior to use in the assays described below.\nFor evaluation of cell populations within different tissues, single cell suspensions of the tissues were incubated with fluorochrome-conjugated antibodies that included anti-mouse CD4, CD8, CD25, CD44, CD62L (all antibodies from BD Biosciences or eBioscience, San Diego, Calif.). Intracellular Foxp3 expression analysis was performed according to the anti-Foxp3 manufacturer's protocol (eBiosciences, San Diego, Calif.). Following incubation with the antibodies, cells were washed and analyzed by flow cytometry (FACSCanto, BD Biosciences and FCS Express software, De Novo Software, Los Angeles, Calif.)."}, "anti-alemtuzumab IgG": {"tested_on": "anti-alemtuzumab IgG", "assay": "Anti-alemtuzumab IgG ELISA titers in huCD52 Tg mice", "from_the_text": "Alemtuzumab-related studies employed human CD52 (huCD52) transgenic (Tg) mice between 6-12 weeks of age that were obtained from Charles River Laboratories/Genzyme Corp. Mice were housed and maintained in accordance with the Guide for Care and Use of Laboratory Animals and under American Association for Accreditation of Laboratory Animals Care I accreditation and all animal protocols used in these studies were approved by the Institutional Animals Care and Use Committee.\nMonoclonal antibody alemtuzumab was administered intravenously as either a single injection of 0.5 mg/kg or in either a three or five day cycle of 0.5 mg/kg/day.\nMethotrexate (Calbiochem catalog #454125) was administered at 0.5, 1.0, 2.0 or 5 mg/kg by intraperitoneal injection for 1-3 cycles, where each cycle equals either three, six or seven consecutive days of injection depending upon the experiment.\nMice were bled 4-6 days following alemtuzumab treatment and specific anti-alemtuzumab IgG was measured by ELISA. Briefly, 96-well plates (Corning Inc., Corning, N.Y., USA) were coated overnight with 3 μg/ml of alemtuzumab in PBS (pH 7.2). Following blocking with 0.1% BSA in PBS, serial dilutions of serum were added in duplicate to alemtuzumab-coated plates and incubated at 37° C. for 1 h. The plates were washed, and horseradish peroxidase-conjugated goat anti-mouse IgG secondary antibody (Southern Biotechnology Associates, Birmingham, Ala., USA) was added and allowed to incubate for 1 h at 37° C. Following a final wash, TMB substrate (BioFx, Owings Mills, Md., USA) was added and allowed to develop for 15 min at room temperature. The reaction was stopped by the addition of 1 N HCl and absorbance values were read at 450/650 nm on an ELISA plate reader (Molecular Devices, Sunnyvale, Calif., USA). End-point titers were defined as the antilog of the logarithmically transformed sample dilution interpolated at an absorbance value of 0.2 using Excel software (Microsoft, Redmond, Wash., USA)."}, "[2]": {"tested_on": "anti-alemtuzumab antibodies", "settings": "rheumatoid arthritis patients, single dose escalation study; cited from earlier work"}, "[3]": {"tested_on": "allogeneic heart transplant", "assay": "Murine allogeneic heart transplant model, graft survival", "type": "in vivo, mice (C57BL/6 donor, Balb/c recipient)", "settings": "mouse, in vivo", "protocol": "Polyclonal antibody mATG was administered as an intraperitoneal injection of 5 mg/kg every four weeks or as two 20 mg/kg doses given four days apart when in the transplant setting with the first dose given on the day of transplant (day 0).\nC57BL/6 and BALB/c mice were obtained from Charles River (Kingston, N.Y. or Raleigh, N.C.) and used in these experiments between 8 and 13 weeks of age. The donor allogenic C57BL/6 mice were first anesthetized with an intraperitoneal injection of Ketamine (Fort Dodge Animal Health/Pfizer, Fort Dodge, Iowa) and Xylazine (Lloyd, Shenandoah, Iowa) and a median sternotomy was performed. […] The ascending aorta and pulmonary artery were then transected, the graft removed from the donor and the heart was stored in ice-cold saline until engraftment. A recipient mouse (Balb/c) was similarly anesthetized and prepped as described above for donor mice, except that the abdominal cavity was opened. […] After hemostasis was confirmed, the abdominal muscle was closed with a running 5-O Vicryl suture (Ethicon, Johnson & Johnson, Somerville, N.J.), and the skin closed with running 5-0 Ethilon suture (Ethicon). Standard post-op pain assessment and management was performed. Grafts were assessed by palpation 5-7 times per week for the first 30 day, and then 3-4 times per week until the end of the study."}, "[4]": {"settings": "alemtuzumab 0.5 mg/kg iv five consecutive days"}, "[5]": {"settings": "peripheral blood, four weeks after five consecutive days of 0.5 mg/kg iv"}}, "data": [{"compound": "rhGAA: recombinant human acid alpha-glucosidase, marketed by Genzyme as Myozyme", "values": [{"measurement": "ADA to rhGAA", "setting": "anti-rhGAA IgG; T cell deficient Nu/Nu mice", "result": "little to no ADA"}, {"measurement": "animals exhibiting high anti-rhGAA titers", "setting": "anti-rhGAA IgG; week 6, rhGAA alone, rhGAA + methotrexate, or with 5 mg/kg 1D11 or 13C4", "result": "two"}]}, {"compound": "alemtuzumab: lymphocyte-depleting humanized anti-CD52 monoclonal antibody", "values": [{"measurement": "percent depletion of circulating B cells", "setting": "[1]; 24 hours after a single dose of alemtuzumab", "result": 92, "unit": "%"}, {"measurement": "splenic follicular, B1 and regulatory B cells", "setting": "[1]; [4]", "result": "depleted at one and/or two weeks"}, {"measurement": "splenic marginal zone, transitional 1 and transitional 2 B cells", "setting": "[1]; [4]", "result": "not depleted at any of the time-points"}, {"measurement": "splenic transitional 3 B cells", "setting": "[1]; [4]", "result": "only depleted after one week of treatment"}, {"measurement": "depletion of circulating T cells by fifth monthly dose of alemtuzumab", "setting": "[1]; alemtuzumab alone, or with methotrexate 5 mg/kg daily for first three days", "result": "no longer deplete T cells"}, {"measurement": "recovery of CD19+ B cell numbers", "setting": "[1]; [5]", "result": "returned to control levels"}, {"measurement": "recovery of total CD3+ T cells, CD4+ T helper cells and CD8+ T cytotoxic cells", "setting": "[1]; [5]", "result": "did not recover to pre-treatment levels"}, {"measurement": "earliest depletion observed in peripheral blood, post-dosing", "setting": "[1]; single dose of alemtuzumab", "result": "three hours"}, {"measurement": "percent depletion of circulating B cells", "setting": "[1]; three days after a single dose of alemtuzumab", "result": 36, "unit": "%"}, {"measurement": "splenic cell subsets", "setting": "[1]; three days after a single dose of alemtuzumab, no methotrexate", "result": "significantly depleted"}, {"measurement": "ADA responses elicited", "setting": "anti-alemtuzumab IgG; alemtuzumab 0.5 mg/kg iv", "result": "significant ADA responses"}, {"measurement": "ADA response following the fifth dose", "setting": "anti-alemtuzumab IgG; alemtuzumab 0.5 mg/kg monthly", "result": "no longer generated anti-alemtuzumab antibodies"}, {"measurement": "ADA titers against alemtuzumab", "setting": "anti-alemtuzumab IgG; huCD52 Tg CD1 mice", "result": "> 100,000"}, {"measurement": "patients in whom anti-alemtuzumab antibodies developed", "setting": "[2]", "result": 63, "unit": "%"}]}, {"compound": "COc1c(C)c2c(c(O)c1C/C=C(\\C)CCC(=O)OCCN1CCOCC1)C(=O)OC2", "note": "[mycophenolate mofetil]", "values": [{"measurement": "graft survival when co-administered with mATG", "setting": "[3]", "result": "failed to significantly prolong graft survival"}]}, {"compound": "O=P1(N(CCCl)CCCl)NCCCO1", "note": "(stereo not drawn) [cyclophosphamide]", "values": [{"measurement": "graft survival when co-administered with mATG", "setting": "[3]", "result": "failed to significantly prolong graft survival"}]}]}
